Measurements: patent US11311520B2, “Substituted dihydroimidazopyridinediones as MKNK1 and MKNK2 inhibitors” (Bayer Pharma Aktiengesellschaft, priority 2017, dated 2022)

Molecular target: human full-length MKNK1 (Homo sapiens (Human), UniProt Q9BUB5, T344D)
Assay: MKNK1 kinase high ATP assay (TR-FRET)
Assay type: biochemical
Details: 2 mM ATP, 15 min preincubation with enzyme, GST-MKNK1 (T344D)
Summary of the method: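 GST-tagged full-length human MKNK1 (1-424, T344D, baculovirus-expressed) preincubated 15 min at 22 °C with compound, then reacted 30 min at 22 °C with 2 mM ATP and 0.06 μM biotinylated peptide (final) in HEPES pH 7.5. Phospho-substrate by TR-FRET (665/622 nm ratio), normalised to no-inhibitor and no-enzyme controls.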

Chain of human full-length MKNK1 (Q9BUB5 other isoform, or with tags, fused parts or gaps T344D): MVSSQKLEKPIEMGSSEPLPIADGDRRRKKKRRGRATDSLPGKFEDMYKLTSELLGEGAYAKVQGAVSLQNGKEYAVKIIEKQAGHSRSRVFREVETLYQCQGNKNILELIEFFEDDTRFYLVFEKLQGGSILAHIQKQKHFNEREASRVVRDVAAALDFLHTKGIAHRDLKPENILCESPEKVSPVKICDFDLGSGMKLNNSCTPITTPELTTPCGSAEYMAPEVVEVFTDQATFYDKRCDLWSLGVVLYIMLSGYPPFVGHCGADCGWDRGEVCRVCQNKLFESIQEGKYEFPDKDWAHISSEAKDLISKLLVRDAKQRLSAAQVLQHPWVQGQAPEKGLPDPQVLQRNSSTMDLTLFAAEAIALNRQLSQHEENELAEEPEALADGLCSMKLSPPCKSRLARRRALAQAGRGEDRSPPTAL

| SMILES | IC50 |
| --- | --- |
| Cc1cc(Nc2ncnc3sc(C(=O)N4C[C@@H]5C[C@H]4CN5C)cc23)c(=O)n2c1C(=O)NC21CCCCC1 [Example 43, 8′-Methyl-6′-[(6-{[(1S,4S)-5-methyl-2,5-diazabicyclo[2.2.1]hept-2-yl]carbonyl}thieno[2,3-d]pyrimidin-4-yl)amino]-2′H-spiro[cyclohexane-1,3′-imidazo[1,5-a]pyridine]-1′,5′-dione] | 0.0029 µM |
| Cc1cc(Nc2ncnc3sc(C(=O)N(C)C)cc23)c(=O)n2c1C(=O)NC21CCCCC1 [Example 10, N,N-Dimethyl-4-[(8′-methyl-1′,5′-dioxo-1′,5′-dihydro-2′H-spiro[cyclohexane-1,3′-imidazo[1,5-a]pyridin]-6′-yl)amino]thieno[2,3-d]pyrimidine-6-carboxamide] | 0.0171 µM |
| Cc1cc(Nc2ncnc(N)n2)c(=O)n2c1C(=O)NC21CCC1 [Example 147, 6′-[(4-Amino-1,3,5-triazin-2-yl)amino]-8′-methyl-2′H-spiro[cyclobutane-1,3′-imidazo[1,5-a]pyridine]-1′,5′-dione] | 0.0127 µM |
| Cc1cc(Nc2ncnc3[nH]ncc23)c(=O)n2c1C(=O)NC21CCCCC1 [Example 7, 8′-Methyl-6′-(1H-pyrazolo[3,4-d]pyrimidin-4-ylamino)-2′H-spiro[cyclohexane-1,3′-imidazo[1,5-a]pyridine]-1′,5′-dione] | 0.002 µM |
| Cc1cc(Nc2ncnc3ccc(F)cc23)c(=O)n2c1C(=O)N[C@]21CC[C@@](O)(C(F)(F)F)CC1 [Example 189, (cis)-6′-[(6-fluoroquinazolin-4-yl)amino]-4-hydroxy-8′-methyl-4-(trifluoromethyl)-2′H-spiro[cyclohexane-1,3′-imidazo[1,5-a]pyridine]-1′,5′-dione] | 0.274 µM |
| Cc1cc(Nc2ncnc3sc(C(=O)N4C[C@H]5C[C@@H]4CO5)cc23)c(=O)n2c1C(=O)NC21CCCCC1 [Example 65, 8′-Methyl-6′-({6-[(1R,4R)-2-oxa-5-azabicyclo[2.2.1]hept-5-ylcarbonyl]thieno[2,3-d]pyrimidin-4-yl}amino)-2′H-spiro[cyclohexane-1,3′-imidazo[1,5-a]pyridine]-1′,5′-dione] | 0.0059 µM |
| Cc1cc(Nc2ncnc3cc(Cl)ccc23)c(=O)n2c1C(=O)NC21CS(=O)(=O)C1 [Example 181, 6-[(7-chloroquinazolin-4-yl)amino]-8-methyl-2H-spiro[imidazo[1,5-a]pyridine-3,3′-thietane]-1,5-dione 1′,1′-dioxide] | 0.104 µM |
| Cc1cc(Nc2ncnc3c2CN(S(=O)(=O)C(F)(F)F)C3)c(=O)n2c1C(=O)NC21CCCCC1 [Example 72, 8′-methyl-6′-({6-[(trifluoromethyl)sulfonyl]-6,7-dihydro-5H-pyrrolo[3,4-d]pyrimidin-4-yl}amino)-2′H-spiro[cyclohexane-1,3′-imidazo[1,5-a]pyridine]-1′,5′-dione] | 0.0304 µM |
| CCCNC(=O)Nc1nccc(Nc2cc(C)c3n(c2=O)C2(CCCCC2)NC3=O)n1 [Example 23, 1-{4-[(8′-Methyl-1′,5′-dioxo-1′,5′-dihydro-2′H-spiro[cyclohexane-1,3′-imidazo[1,5-a]pyridin]-6′-yl)amino]pyrimidin-2-yl}-3-propylurea] | 0.337 µM |
| Cc1cc(Nc2ncnc3sc(C(N)=O)cc23)c(=O)n2c1C(=O)NC21CCCCC1 [Example 97, 4-[(8′-Methyl-1′,5′-dioxo-1′,5′-dihydro-2′H-spiro[cyclohexane-1,3′-imidazo[1,5-a]pyridin]-6′-yl)amino]thieno[2,3-d]pyrimidine-6-carboxamide] | 0.0051 µM |
| Cc1cc(Nc2ncnc3c2CN(S(=O)(=O)C(F)F)C3)c(=O)n2c1C(=O)NC21CCCCC1 [Example 71, 6′-({6-[(difluoromethyl)sulfonyl]-6,7-dihydro-5H-pyrrolo[3,4-d]pyrimidin-4-yl}amino)-8′-methyl-2′H-spiro[cyclohexane-1,3′-imidazo[1,5-a]pyridine]-1′,5′-dione] | 0.0592 µM |
| Cc1cc(Nc2ncnc3ccc(Cl)cc23)c(=O)n2c1C(=O)NC21CCS(=O)(=O)CC1 [Example 199, 6-[(6-chloroquinazolin-4-yl)amino]-8-methyl-2′,3′,5′,6′-tetrahydro-2H-spiro[imidazo[1,5-a]pyridine-3,4′-thiopyran]-1,5-dione 1′,1′-dioxide] | 0.0563 µM |
| Cc1cc(Nc2ncnc3[nH]ncc23)c(=O)n2c1C(=O)NC21CCC1 [Example 160, 8′-Methyl-6′-(1H-pyrazolo[3,4-d]pyrimidin-4-ylamino)-2′H-spiro[cyclobutane-1,3′-imidazo[1,5-a]pyridine]-1′,5′-dione] | 0.0029 µM |
| Cc1cc(Nc2ncnc3c2CN(S(=O)(=O)CC(F)(F)F)C3)c(=O)n2c1C(=O)NC21CCCCC1 [Example 73, 8′-methyl-6′-({6-[(2,2,2-trifluoroethyl)sulfonyl]-6,7-dihydro-5H-pyrrolo[3,4-d]pyrimidin-4-yl}amino)-2′H-spiro[cyclohexane-1,3′-imidazo[1,5-a]pyridine]-1′,5′-dione] | 0.168 µM |
| Cc1cc(Nc2ncnc3c2ncn3CC(C)O)c(=O)n2c1C(=O)NC21CCCCC1 (racemic) [Example 39, (RS)-6′-{[9-(2-Hydroxypropyl)-9H-purin-6-yl]amino}-8′-methyl-2′H-spiro[cyclohexane-1,3′-imidazo[1,5-a]pyridine]-1′,5′-dione] | 0.744 µM |
| Cc1cc(Nc2ncnc3c2ncn3CC(=O)O)c(=O)n2c1C(=O)NC21CCCCC1 [Example 48, {6-[(8′-Methyl-1′,5′-dioxo-1′,5′-dihydro-2′H-spiro[cyclohexane-1,3′-imidazo[1,5-a]pyridin]-6′-yl)amino]-9H-purin-9-yl}acetic acid] | 0.0294 µM |
| Cc1cc(Nc2ncnc3[nH]ncc23)c(=O)n2c1C(=O)NC21CCCC1 [Example 68, 8′-methyl-6′-(1H-pyrazolo[3,4-d]pyrimidin-4-ylamino)-2′H-spiro[cyclopentane-1,3′-imidazo[1,5-a]pyridine]-1′,5′-dione] | 0.0018 µM |
| Cc1cc(Nc2ncnc3sc(C(=O)N4CCC(N(C)C)CC4)cc23)c(=O)n2c1C(=O)NC2(C)C [Example 143, 6-[(6-{[4-(Dimethylamino)piperidin-1-yl]carbonyl}thieno[2,3-d]pyrimidin-4-yl)amino]-3,3,8-trimethyl-2,3-dihydroimidazo[1,5-a]pyridine-1,5-dione] | 0.0403 µM |
| Cc1cc(Nc2ncnc3sccc23)c(=O)n2c1C(=O)NC21CCC(O)(C(F)(F)F)CC1 (centres unmarked) [Example 130, 4-Hydroxy-8′-methyl-6′-(thieno[2,3-d]pyrimidin-4-ylamino)-4-(trifluoromethyl)-2′H-spiro[cyclohexane-1,3′-imidazo[1,5-a]pyridine]-1′,5′-dione] | 0.0079 µM |
| Cc1cc(Nc2ncnc3[nH]ccc23)c(=O)n2c1C(=O)NC21CCCCC1 [Example 6, 8′-Methyl-6′-(7H-pyrrolo[2,3-d]pyrimidin-4-ylamino)-2′H-spiro[cyclohexane-1,3′-imidazo[1,5-a]pyridine]-1′,5′-dione] | 0.0003 µM |
| Cc1cc(Nc2ncnc3ccc(Cl)cc23)c(=O)n2c1C(=O)NC21CCC(F)(F)CC1 [Example 99, 6′-[(6-chloroquinazolin-4-yl)amino]-4,4-difluoro-8′-methyl-2′H-spiro[cyclohexane-1,3′-imidazo[1,5-a]pyridine]-1′,5′-dione] | 0.0188 µM |
| Cc1cc(Nc2ncnc3sc(C(=O)N4CC(N)C4)cc23)c(=O)n2c1C(=O)NC2(C)C [Example 140, 6-({6-[(3-Aminoazetidin-1-yl)carbonyl]thieno[2,3-d]pyrimidin-4-yl}amino)-3,3,8-trimethyl-2,3-dihydroimidazo[1,5-a]pyridine-1,5-dione] | 0.0223 µM |
| Cc1cc(Nc2ncnc3scnc23)c(=O)n2c1C(=O)NC21CCC(F)(F)CC1 [Example 101, 4,4-Difluoro-8′-methyl-6′-([1,3]thiazolo[5,4-d]pyrimidin-7-ylamino)-2′H-spiro[cyclohexane-1,3′-imidazo[1,5-a]pyridine]-1′,5′-dione] | 0.187 µM |
| Cc1cc(Nc2ncnc3c2CN(S(=O)(=O)c2ccccc2)C3)c(=O)n2c1C(=O)NC21CCCCC1 [Example 70, 8′-methyl-6′-{[6-(phenylsulfonyl)-6,7-dihydro-5H-pyrrolo[3,4-d]pyrimidin-4-yl]amino}-2′H-spiro[cyclohexane-1,3′-imidazo[1,5-a]pyridine]-1′,5′-dione] | 0.0217 µM |
| Cc1cc(Nc2ncnc3sc(C(=O)O)c(C)c23)c(=O)n2c1C(=O)NC21CCCCC1 [Example 15, 5-Methyl-4-[(8′-methyl-1′,5′-dioxo-1′,5′-dihydro-2′H-spiro[cyclohexane-1,3′-imidazo[1,5-a]pyridin]-6′-yl)amino]thieno[2,3-d]pyrimidine-6-carboxylic acid] | 0.0213 µM |
| Cc1cc(Nc2ncnc3scnc23)c(=O)n2c1C(=O)NC21CCCC1 [Example 100, 8′-Methyl-6′-([1,3]thiazolo[5,4-d]pyrimidin-7-ylamino)-2′H-spiro[cyclopentane-1,3′-imidazo[1,5-a]pyridine]-1′,5′-dione] | 0.0705 µM |
| Cc1cc(Nc2ncnc3sc(C(=O)N(C)C)c(C)c23)c(=O)n2c1C(=O)NC21CCCCC1 [Example 16, N,N,5-trimethyl-4-[(8′-methyl-1′,5′-dioxo-1′,5′-dihydro-2′H-spiro[cyclohexane-1,3′-imidazo[1,5-a]pyridin]-6′-yl)amino]thieno[2,3-d]pyrimidine-6-carboxamide] | 0.0667 µM |
| Cc1cc(Nc2ncnc3[nH]ccc23)c(=O)n2c1C(=O)NC21CCSCC1 [Example 196, 8-methyl-6-(7H-pyrrolo[2,3-d]pyrimidin-4-ylamino)-2′,3′,5′,6′-tetrahydro-2H-spiro[imidazo[1,5-a]pyridine-3,4′-thiopyran]-1,5-dione] | 0.0005 µM |
| Cc1cc(Nc2ncnc3scnc23)c(=O)n2c1C(=O)NC21CCCCC1 [Example 51, 8′-Methyl-6′-([1,3]thiazolo[5,4-d]pyrimidin-7-ylamino)-2′H-spiro[cyclohexane-1,3′-imidazo[1,5-a]pyridine]-1′,5′-dione] | 0.0029 µM |
